In article PMC7496931, “Activation of Sirtuin 2 Inhibitors Employing Photoswitchable Geometry and Aqueous Solubility” (Chemmedchem, 2020):
Read-outs that look alike come from different tables or passages of the source.

Assays:
Assay type in all cases: biochemical
Sirt1 = target: T1, Sirt1 (Homo sapiens, UniProt Q96EB6); test: Fluorescence-based ZMAL deacetylase activity assay, Sirt1
T1 construct: Expression and purification of Sirt1_133−747, Sirt2_56−356, and Sirt3_118−395 was carried out as described previously; made in house
T1 sequence (Q96EB6 133-747): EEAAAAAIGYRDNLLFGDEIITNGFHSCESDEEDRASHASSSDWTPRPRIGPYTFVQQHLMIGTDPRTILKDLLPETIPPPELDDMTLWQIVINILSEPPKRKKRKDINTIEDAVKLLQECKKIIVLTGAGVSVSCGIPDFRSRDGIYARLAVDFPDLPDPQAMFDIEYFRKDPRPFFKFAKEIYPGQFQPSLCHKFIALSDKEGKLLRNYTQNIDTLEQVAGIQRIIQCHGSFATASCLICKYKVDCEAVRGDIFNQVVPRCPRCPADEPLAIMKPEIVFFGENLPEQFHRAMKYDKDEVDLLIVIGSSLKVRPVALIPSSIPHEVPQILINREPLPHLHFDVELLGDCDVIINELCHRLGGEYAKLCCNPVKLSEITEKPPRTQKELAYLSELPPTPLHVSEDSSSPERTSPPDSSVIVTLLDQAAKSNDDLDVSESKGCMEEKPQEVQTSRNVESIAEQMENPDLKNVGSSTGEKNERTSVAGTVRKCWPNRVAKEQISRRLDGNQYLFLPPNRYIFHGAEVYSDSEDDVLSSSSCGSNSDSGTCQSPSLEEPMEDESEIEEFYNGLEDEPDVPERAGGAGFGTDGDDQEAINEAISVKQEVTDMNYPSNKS
Description: (§1) The effect of the compounds on deacetylase activity of three human sirtuin isotypes (Sirt1–3) was investigated by a homogeneous fluorescence‐based assay, using (Z)‐Lys(acetyl)‐AMC (ZMAL) as substrate. In order to determine the impact of photoisomerization, the respective compounds were irradiated (365 nm, 5 min) in DMSO prior to incubation in the enzyme assay mixture. The results of the irradiated probes were finally compared to non‐irradiated measurements.
(§2) Cloning, expression and purification of recombinant proteins: Expression and purification of Sirt1_133−747, Sirt2_56−356, and Sirt3_118−395 was carried out as described previously.27 Identity and purity were verified by SDS‐PAGE.
(§3) Fluorescence‐based activity assay: The inhibitory effect of compounds on Sirt1–3 was detected via a previously reported fluorescence‐based assay.29 The synthetic substrate (Z)‐Lys(acetyl)‐AMC (ZMAL) is deacetylated by sirtuins, followed by tryptic digestion and thereby release of 7‐aminomethylcoumarin, leading to a fluorescent readout. Inhibition was determined by comparing percentage substrate conversion to a DMSO control after subtraction of the blank fluorescence signal. All compounds were tested at 100 or 50 μM and 10 μM respectively. […] IC50 values were calculated with OriginPro 9.0 G using a non‐linear regression to fit the dose response curve (Figure S6). An enzyme‐free blank control and a 100 % conversion control using AMC instead of ZMAL were measured as well. Inhibition measurements were performed in biological duplicates for all compounds. […]
(§4) Fluorescence-Based Activity Assay (ZMAL-Assay)
(§5) The influence of the synthesized compounds on the deacetylase activity of the class I sirtuins Sirt1–3 was determined in a homogenous fluorescence-based enzyme assay, using the artificial substrate Z-(Ac)Lys-AMC (ZMAL). ZMAL is processed by sirtuins yielding Z-Lys-AMC.
(§6) The latter is subsequently cleaved by tryptic digestion, releasing 7-amino-4-methylcoumarin (AMC), excitation of which leads to a fluorescent read out (λex=390 nm; λem=460 nm). Instead, […]
(§7) contribute to the fluorescence signal. Therefore, the fluorescence intensity is proportional to the activity of the respective sirtuin.
(§8) After subtraction of the blank fluorescence signal (without enzyme) from the signal of the respective probe, the residual signal intensity is related to a 100 % conversion control (AMC), […]
(§9) yielding the percentage substrate conversion. Comparison of the determined substrate conversion with a no-inhibition DMSO control yields the percentage inhibition at the respective […]
(§10) For determination of IC50, inhibitory activity of the respective compound was determined at 8 to 10 distinct concentrations. The measured values were analysed by a non-linear fit to the dose-response curve using a four parameter logistic model (Figure S6):
(§11) Figure S6: Non-linear regression of the dose-response curves of compounds 15c and 15f at the thermal equilibrium (∆, black) and after 5 minutes of 365 nm irradiation (red). […]
A maximal polarization control using just DMSO and a minimal polarization control using 1 µL of the 400 µM solution of 22 instead of inhibitor were performed as well as a blank control containing 1 µL of DMSO in 19 µL assay buffer. The mixture was incubated 10 min at 37 °C […]
(1 picture or pasted object on this page, not shown here)

Sirt2 = target: T2, Sirt2 (Homo sapiens, UniProt Q8IXJ6); test: Fluorescence-based ZMAL deacetylase activity assay, Sirt2; design: key to Sirt2 inhibition Δ (class): n.i.: no inhibition detected (<30 % @ 100 μM); u.i.: unspecific interactions; details: for decrease of Sirt2 inhibition upon 365 nm irradiation (factor): PSS 365 nm versus thermal equilibrium
T2 construct: Expression and purification of Sirt1_133−747, Sirt2_56−356, and Sirt3_118−395 was carried out as described previously; made in house
T2 sequence (Q8IXJ6 56-356): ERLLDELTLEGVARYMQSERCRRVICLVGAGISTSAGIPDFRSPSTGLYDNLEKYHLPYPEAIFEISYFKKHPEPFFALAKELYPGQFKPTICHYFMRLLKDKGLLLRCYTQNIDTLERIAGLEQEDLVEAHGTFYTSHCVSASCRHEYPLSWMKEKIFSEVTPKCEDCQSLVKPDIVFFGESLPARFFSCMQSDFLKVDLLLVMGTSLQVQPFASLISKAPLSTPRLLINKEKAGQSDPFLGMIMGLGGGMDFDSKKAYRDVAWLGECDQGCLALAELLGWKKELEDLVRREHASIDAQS
Description: as §1, §2, §3, §4, §5, §6, §7, §8, §9, §10, §11
(§12) A maximal polarization control using just DMSO and a minimal polarization control using 1 µL of the 400 µM solution of 22 instead of inhibitor were performed as well as a blank control containing 1 µL of DMSO in 19 µL assay buffer. The mixture was incubated 10 min at 37 °C

Sirt3 = target: T3, Sirt3 (Homo sapiens, UniProt Q9NTG7); test: Fluorescence-based ZMAL deacetylase activity assay, Sirt3; design: key to Sirt3 inhibition Δ (class) / Sirt3 inhibition PSS [365 nm] (class): n.i.: no inhibition detected (<30 % @ 100 μM); u.i.: unspecific interactions
T3 construct: Expression and purification of Sirt1_133−747, Sirt2_56−356, and Sirt3_118−395 was carried out as described previously; made in house
T3 sequence (Q9NTG7 118-395): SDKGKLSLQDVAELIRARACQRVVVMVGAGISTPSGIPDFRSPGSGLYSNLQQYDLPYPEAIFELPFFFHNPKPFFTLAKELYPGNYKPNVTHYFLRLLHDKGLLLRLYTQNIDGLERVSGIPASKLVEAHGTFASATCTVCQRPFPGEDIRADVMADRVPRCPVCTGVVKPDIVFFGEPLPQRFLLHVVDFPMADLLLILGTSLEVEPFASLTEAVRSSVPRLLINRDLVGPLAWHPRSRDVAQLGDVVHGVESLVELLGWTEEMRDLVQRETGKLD
Description: as §1, §2, §3, §4, §5, §6, §7, §8, §9, §10, §11, §12

[1] = PSS after 5 min UV irradiation (365 nm), read-out: Sirt1 inhibition PSS [365 nm] (class)
[2] = thermal equilibrium (Δ), read-out: Sirt1 inhibition Δ (class)
[3] = PSS after 5 min UV irradiation (365 nm), read-out: Sirt2 inhibition PSS [365 nm], IC50
[4] = thermal equilibrium (Δ), read-out: Sirt2 inhibition Δ, IC50
[5] = PSS after 5 min UV irradiation (365 nm), read-out: Sirt3 inhibition PSS [365 nm], percent inhibition
[6] = thermal equilibrium (Δ), read-out: Sirt3 inhibition Δ, percent inhibition
[7] = PSS after 5 min UV irradiation (365 nm), read-out: Sirt2 inhibition PSS [365 nm], percent inhibition
[8] = thermal equilibrium (Δ), read-out: Sirt2 inhibition Δ, percent inhibition
[9] = PSS after 5 min UV irradiation (365 nm)
[10] = @ 100 μM, PSS after 5 min UV irradiation (365 nm), read-out: Sirt1 inhibition PSS [365 nm], percent inhibition
[11] = @ 100 μM, thermal equilibrium (Δ), read-out: Sirt1 inhibition Δ, percent inhibition
[12] = PSS after 5 min UV irradiation (365 nm), read-out: Sirt2 inhibition PSS [365 nm], percent inhibition (converted)
[13] = thermal equilibrium (Δ), read-out: Sirt2 inhibition Δ, percent inhibition (converted)

SMILES | inhibition at 100 µM (Sirt1; [1]) | inhibition at 100 µM (Sirt1; [2]) | IC50 (Sirt2; [3]) | IC50 (Sirt2; [4]) | inhibition at 10 µM (Sirt3; [5]) | inhibition at 10 µM (Sirt3; [6]) | inhibition at 100 µM (Sirt2; [8]) | Sirt3 inhibition Δ (class) (Sirt3; thermal equilibrium (Δ)) | also measured
NC(=O)c1cncc(OCc2cccc(/N=N/c3ccc(F)cc3)c2)c1 [20 b] | < 30% | < 30% | 6.4 ± 0.5 µM | 3.2 ± 0.5 µM | 47% | 34% |  |  | decrease of Sirt2 inhibition upon 365 nm irradiation (factor) (Sirt2): twofold
Cc1cc(/N=N/c2cncc(C(N)=O)c2)cc(C)c1NC(=O)c1ccc(-c2cccs2)cc1 [9 j] | < 30% | < 30% |  |  |  |  | 80% | u.i. | inhibition at 100 µM (Sirt2; [7]): 59%; Sirt3 inhibition PSS [365 nm] (class) (Sirt3; [9]): u.i.
CC(C)(O)C#Cc1ccc(/N=N/c2cncc(C(N)=O)c2)cc1 [15 h] | < 30% | < 30% | 37.5 ± 5.2 µM | 15.2 ± 1.8 µM | 18% | 42% |  |  | decrease of Sirt2 inhibition upon 365 nm irradiation (factor) (Sirt2): 2.5 fold
NC(=O)c1cncc(OCc2cccc(/N=N/c3ccc(OCc4ccccc4)cc3)c2)c1 [20 a] | < 30% | < 30% | 1.6 ± 0.2 µM | 0.7 ± 0.21 µM | 24% | 23% |  |  | decrease of Sirt2 inhibition upon 365 nm irradiation (factor) (Sirt2): twofold
NC(=O)c1cncc(/N=N/c2c(O)ccc3ccccc23)c1 [7 c] |  |  |  |  |  |  |  |  | Sirt1 inhibition (class) (Sirt1; non-irradiated): n.i. (n.i.: no inhibition detected (<30 % @ 100 μM)); inhibition at 10 µM (Sirt2; non-irradiated, read-out: Sirt2 inhibition, percent inhibition relative to controls): 55%; inhibition at 10 µM (Sirt3; non-irradiated, read-out: Sirt3 inhibition, percent inhibition relative to controls): 64%
CC(C)(C)OC(=O)Cc1ccc(/N=N/c2cncc(C(N)=O)c2)cc1 [15 b] |  |  | 6.9 ± 0.6 µM | 3.9 ± 0.2 µM | 30% | 58% |  |  | inhibition at 100 µM (Sirt1; [10]): 44%; inhibition at 100 µM (Sirt1; [11]): 35%
CC(=O)Nc1c(C)cc(/N=N/c2cncc(C(N)=O)c2)cc1C [9 a] | < 30% | < 30% |  |  |  |  | 65% |  | inhibition at 10 µM (Sirt2; [12]): 11%; inhibition at 10 µM (Sirt2; [13]): 17%; inhibition at 100 µM (Sirt3; [5]): 52%; inhibition at 100 µM (Sirt3; [6]): 68%
Cc1cc(/N=N/c2cncc(C(N)=O)c2)cc(C)c1NC(=O)C12CC3CC(CC(C3)C1)C2 [9 k] | < 30% | < 30% |  |  |  |  | 43% | n.i. (n.i.: no inhibition detected (<30 % @ 100 μM)) | inhibition at 100 µM (Sirt2; [7]): 71%; Sirt3 inhibition PSS [365 nm] (class) (Sirt3; [9]): n.i. (n.i.: no inhibition detected (<30 % @ 100 μM))
CCCCNC(=O)c1ccc(/N=N/c2cncc(C(N)=O)c2)cc1 [15 e] |  | < 30% |  |  | 49% | 54% |  |  | inhibition at 10 µM (Sirt1; @ 10 μM, PSS after 5 min UV irradiation (365 nm), read-out: Sirt1 inhibition PSS [365 nm], percent inhibition): 10%; inhibition at 10 µM (Sirt2; [12]): 61%; inhibition at 10 µM (Sirt2; [13]): 51%
C#Cc1ccc(/N=N/c2cccc(COc3cncc(C(N)=O)c3)c2)cc1 [20 c] |  |  | 6.2 ± 0.54 µM |  |  |  |  | u.i. | inhibition at 100 µM (Sirt1; [10]): 62%; inhibition at 100 µM (Sirt1; [11]): 45%; Sirt2 inhibition Δ (class) (Sirt2; thermal equilibrium (Δ)): u.i.; IC50 (Sirt3; PSS after 5 min UV irradiation (365 nm), read-out: Sirt3 inhibition PSS [365 nm], IC50): 17.2 ± 1.57 µM
Cc1cc(/N=N/c2cncc(C(N)=O)c2)cc(C)c1NC(=O)c1ccccc1 [9 h] | < 30% | < 30% |  |  |  |  | 27% | n.i. (n.i.: no inhibition detected (<30 % @ 100 μM)) | inhibition at 100 µM (Sirt2; [7]): 52%; inhibition at 100 µM (Sirt3; [5]): 32%
